Results from patent US11738019B2, “Substituted heterocycles as antiviral agents” (ENANTA PHARMACEUTICALS, INC., priority 2019, dated 2023).

What was measured:
[1] = compound induced cellular toxicity in HepG2 cells (ATPlite 1Step); assay type: cell-based; conditions: human, three days, concentration reducing total ATP levels by 50% relative to no drug controls
Procedure: At day 3, post seeding cells are treated with ATPlite 1Step according to the manufacturer's instructions.

[2] = test system: HBV (2.2.15 cells); test: HBV viral product reduction in 2.2.15 cells (qPCR / HBsAg or HBeAg ELISA); assay type: cell-based; conditions: Hepatitis B virus, 120 h, day 5 post treatment, concentration reducing viral product accumulation in cell lysates or supernatants by 50% relative to no drug controls
Procedure: 2.2.15 cells are passaged upon attaining confluency in DMEM/F12 media in the presence of 10% FBS, Penn/Strep, and 250 ug/mL G418. Novel compounds are 5 fold serially diluted in DMSO and added to 96 well plates containing 35,000 cells/well at a 1:200 dilution so that the final concentration of DMSO is 0.5%. On day 5, post treatment cell lysates and supernatants are harvested for analysis.
Cells are lysed using Agilent Sidestep Lysis buffer, diluted 1:100 and quantified via quantitative real time PCR. Commercially available ELISA kits are used to quantitate the viral proteins HBsAg (Alpco) or HBeAg (US Biological) by following the manufacturer's recommended protocol after diluting samples to match the linear range of their respective assays. Irrespective of readout, compound concentrations that reduce viral product accumulation in the cell lysates or supernatants by 50% relative to no drug controls (EC50) are reported; EC50 ranges are as follows: A<0.1 μM; B 0.1-1 μM; C>1 μM.

## CC(C)(C)[C@@H]1Cc2c(cc(-c3cnco3)c3ccoc23)-c2cc(=O)c(C(=O)O)cn21 [Example 12, (S)-5-(tert-butyl)-12-(oxazol-5-yl)-9-oxo-4,9-dihydro-5H-furo[2,3-f]pyrido[2,1-a]isoquinoline-8-carboxylic acid]
[1]
  CC50 at 3 days: > 25 µM
[2]
  EC50: < 0.1 µM

## CC(C)(C)[C@@H]1Cc2c(cc(-c3ccoc3)c3ccoc23)-c2cc(=O)c(C(=O)O)cn21 [Example 3, (S)-5-(tert-butyl)-12-(furan-3-yl)-9-oxo-4,9-dihydro-5H-furo[2,3-f]pyrido[2,1-a]isoquinoline-8-carboxylic acid]
[1]
  CC50 at 3 days: > 25 µM
[2]
  EC50: < 0.1 µM

## CC(C)(C)[C@@H]1Cc2c(cc(Cl)c3occc23)-c2cc(=O)c(C(=O)O)cn21 [Example 1, (S)-5-(tert-butyl)-12-chloro-9-oxo-4,9-dihydro-5H-furo[3,2-f]pyrido[2,1-a]isoquinoline-8-carboxylic acid]
[1]
  CC50 at 3 days: > 25 µM
[2]
  EC50: < 0.1 µM

## CC(C)(C)[C@@H]1Cc2c(cc(-c3cn[nH]c3)c3ccoc23)-c2cc(=O)c(C(=O)O)cn21 [Example 9, (S)-5-(tert-butyl)-9-oxo-12-(1H-pyrazol-4-yl)-4,9-dihydro-5H-furo[2,3-f]pyrido[2,1-a]isoquinoline-8-carboxylic acid]
[1]
  CC50 at 3 days: > 25 µM
[2]
  EC50: < 0.1 µM

## Cn1cc(-c2cc3c(c4occc24)C[C@@H](C(C)(C)C)n2cc(C(=O)O)c(=O)cc2-3)cn1 [Example 15, (S)-5-(tert-butyl)-12-(1-methyl-1H-pyrazol-4-yl)-9-oxo-4,9-dihydro-5H-furo[2,3-f]pyrido[2,1-a]isoquinoline-8-carboxylic acid]
[1]
  CC50 at 3 days: > 25 µM
[2]
  EC50: < 0.1 µM

## CC(C)(C)[C@@H]1Cc2c(cc(-c3ccn[nH]3)c3ccoc23)-c2cc(=O)c(C(=O)O)cn21 [Example 6, (S)-5-(tert-butyl)-9-oxo-12-(1H-pyrazol-5-yl)-4,9-dihydro-5H-furo[2,3-f]pyrido[2,1-a]isoquinoline-8-carboxylic acid]
[1]
  CC50 at 3 days: 10 to 25 µM
[2]
  EC50: < 0.1 µM

## CC(C)(C)[C@@H]1Cc2c(cc(-c3ccoc3)c3occc23)-c2cc(=O)c(C(=O)O)cn21 [Example 13, (S)-5-(tert-butyl)-12-(furan-3-yl)-9-oxo-4,9-dihydro-5H-furo[3,2-f]pyrido[2,1-a]isoquinoline-8-carboxylic acid]
[1]
  CC50 at 3 days: 10 to 25 µM
[2]
  EC50: < 0.1 µM

## CC(C)(C)[C@@H]1Cc2c(cc(Cl)c3ccoc23)-c2cc(=O)c(C(=O)O)cn21 [Example 2, (S)-5-(tert-butyl)-12-chloro-9-oxo-4,9-dihydro-5H-furo[2,3-f]pyrido[2,1-a]isoquinoline-8-carboxylic acid]
[1]
  CC50 at 3 days: > 25 µM
[2]
  EC50: < 0.1 µM

## CC(C)(C)[C@@H]1Cc2c(cc(-c3ccco3)c3ccoc23)-c2cc(=O)c(C(=O)O)cn21 [Example 8, (S)-5-(tert-butyl)-12-(furan-2-yl)-9-oxo-4,9-dihydro-5H-furo[2,3-f]pyrido[2,1-a]isoquinoline-8-carboxylic acid]
[1]
  CC50 at 3 days: > 25 µM
[2]
  EC50: < 0.1 µM
